Laboratory results as given in paper PMC5218480 (PLoS ONE, 2017).

Test system: MV-4-11 cells
Experiment: Gene expression microarray analysis (Affymetrix PrimeView) and GSEA
Format: cell-based, human
Set-up: RFU PODN (11730768_x_at) / Fold change /veh PODN (11730768_x_at) / RFU LINC00158 (11744669_a_at) / Fold change /veh LINC00158 (11744669_a_at) / RFU DUSP10 (11751237_a_at) / Fold change /veh DUSP10 (11751237_a_at) / RFU ID3 (11757404_x_at) / Fold change /veh ID3 (11757404_x_at) / RFU PLEKHG5 (11737974_s_at) / Fold change /veh PLEKHG5 (11737974_s_at) / RFU LRRC4B (11730491_at) / Fold change /veh LRRC4B (11730491_at) / RFU GIMAP4 (11747438_a_at) / Fold change /veh GIMAP4 (11747438_a_at) / RFU KRT8 (11758183_x_at) / Fold change /veh KRT8 (11758183_x_at) / RFU CNN1 (11734310_a_at) / Fold change /veh CNN1 (11734310_a_at) / RFU VPS37D (11726825_at) / Fold change /veh VPS37D (11726825_at) / RFU C10orf10 (11716522_x_at) / Fold change /veh C10orf10 (11716522_x_at) / RFU KIR2DL2 /// KIR2DL4 /// KIR2DL5A /// KIR2DL5B /// KIR2DS1 /// KIR2DS2 /// KIR2DS3 /// KIR2DS4 /// KIR3DL3 /// KIR3DL3 /// KIR3DS1 (11738374_at) / Fold change /veh KIR2DL2 /// KIR2DL4 /// KIR2DL5A /// KIR2DL5B /// KIR2DS1 /// KIR2DS2 /// KIR2DS3 /// KIR2DS4 /// KIR3DL3 /// KIR3DL3 /// KIR3DS1 (11738374_at) / RFU C1QL1 (11718748_at) / Fold change /veh C1QL1 (11718748_at) / RFU TMPRSS4 (11747572_a_at) / Fold change /veh TMPRSS4 (11747572_a_at) / RFU HAMP (11756126_x_at) / Fold change /veh HAMP (11756126_x_at) / RFU RNFT2 (11725882_a_at) / Fold change /veh RNFT2 (11725882_a_at) / RFU NR4A2 (11747474_a_at) / Fold change /veh NR4A2 (11747474_a_at) / RFU ABCC12 (11746883_a_at) / Fold change /veh ABCC12 (11746883_a_at) / RFU TMEM136 (11760407_x_at) / Fold change /veh TMEM136 (11760407_x_at) / RFU CLDN22 /// WWC2 (11732394_at) / Fold change /veh CLDN22 /// WWC2 (11732394_at) / RFU HLA-DPB1 (11760878_x_at) / Fold change /veh HLA-DPB1 (11760878_x_at) / RFU SPINT1 (11716480_a_at) / Fold change /veh SPINT1 (11716480_a_at) / RFU GAP43 (11754022_s_at) / Fold change /veh GAP43 (11754022_s_at) / RFU A4GNT (11735810_at) / Fold change /veh A4GNT (11735810_at) / RFU PRB3 (11715151_x_at) / Fold change /veh PRB3 (11715151_x_at) / RFU TUBB4B (11761932_at) / Fold change /veh TUBB4B (11761932_at) / RFU CAPN14 (11732068_a_at) / Fold change /veh CAPN14 (11732068_a_at) / RFU TMCC2 (11721928_a_at) / Fold change /veh TMCC2 (11721928_a_at) / RFU IRGQ (11745062_a_at) / Fold change /veh IRGQ (11745062_a_at) / RFU FAM174B (11720279_a_at) / Fold change /veh FAM174B (11720279_a_at) / RFU TMPRSS4 (11748680_a_at) / Fold change /veh TMPRSS4 (11748680_a_at) / RFU FAM212B (11763350_a_at) / Fold change /veh FAM212B (11763350_a_at) / RFU PLEKHG5 (11743358_a_at) / Fold change /veh PLEKHG5 (11743358_a_at) / RFU ZSCAN30 (11745921_a_at) / Fold change /veh ZSCAN30 (11745921_a_at) / RFU CMKLR1 (11741424_a_at) / Fold change /veh CMKLR1 (11741424_a_at) / RFU LOC101060620 /// MAPK8IP1 (11723275_at) / Fold change /veh LOC101060620 /// MAPK8IP1 (11723275_at) / RFU SPTSSB (11747773_x_at) / Fold change /veh SPTSSB (11747773_x_at) / RFU PRSS12 (11739890_at) / Fold change /veh PRSS12 (11739890_at) / RFU BIN1 (11741810_x_at) / Fold change /veh BIN1 (11741810_x_at) / RFU WNT11 (11732464_a_at) / Fold change /veh WNT11 (11732464_a_at) / RFU C10orf10 (11716521_a_at) / Fold change /veh C10orf10 (11716521_a_at) / RFU C5orf56 (11738089_at) / Fold change /veh C5orf56 (11738089_at) / RFU CYB561 (11721691_x_at) / Fold change /veh CYB561 (11721691_x_at) / RFU ANKRD19P (11752326_a_at) / Fold change /veh ANKRD19P (11752326_a_at) / RFU OR2T12 /// OR2T33 /// OR2T8 (11738714_s_at) / Fold change /veh OR2T12 /// OR2T33 /// OR2T8 (11738714_s_at) / RFU VCAN (11748164_a_at) / Fold change /veh VCAN (11748164_a_at) / RFU JSRP1 (11732532_at) / Fold change /veh JSRP1 (11732532_at) / RFU KRTAP10-11 (11738290_x_at) / Fold change /veh KRTAP10-11 (11738290_x_at) / RFU MYO3A (11730013_a_at) / Fold change /veh MYO3A (11730013_a_at) / RFU EBF3 (11725865_a_at) / Fold change /veh EBF3 (11725865_a_at) / RFU CAMK2N1 (11719241_x_at) / Fold change /veh CAMK2N1 (11719241_x_at) / RFU C5orf56 (11738088_a_at) / Fold change /veh C5orf56 (11738088_a_at) / RFU OLFML3 (11715873_a_at) / Fold change /veh OLFML3 (11715873_a_at) / RFU LOC100653217 /// NTM (11731650_a_at) / Fold change /veh LOC100653217 /// NTM (11731650_a_at) / RFU MAPK11 (11762145_a_at) / Fold change /veh MAPK11 (11762145_a_at) / RFU FIZ1 (11724087_x_at) / Fold change /veh FIZ1 (11724087_x_at) / RFU OASL (11726364_x_at) / Fold change /veh OASL (11726364_x_at) / RFU SOX15 (11748057_x_at) / Fold change /veh SOX15 (11748057_x_at) / RFU CD79A (11719716_a_at) / Fold change /veh CD79A (11719716_a_at) / RFU HIST1H1D (11736915_at) / Fold change /veh HIST1H1D (11736915_at) / RFU CASKIN2 (11723855_a_at) / Fold change /veh CASKIN2 (11723855_a_at) / RFU LOC730098 (11760151_x_at) / Fold change /veh LOC730098 (11760151_x_at) / RFU OR4N2 (11742367_at) / Fold change /veh OR4N2 (11742367_at) / RFU PRRT2 (11749266_a_at) / Fold change /veh PRRT2 (11749266_a_at) / RFU SNX32 (11753110_a_at) / Fold change /veh SNX32 (11753110_a_at) / RFU CDHR5 (11726645_a_at) / Fold change /veh CDHR5 (11726645_a_at) / RFU RCAN1 (11760418_a_at) / Fold change /veh RCAN1 (11760418_a_at) / RFU FAM167A (11723789_a_at) / Fold change /veh FAM167A (11723789_a_at) / RFU FAM26E (11764081_at) / Fold change /veh FAM26E (11764081_at) / RFU ISYNA1 (11749810_s_at) / Fold change /veh ISYNA1 (11749810_s_at) / RFU ACY1 (11761880_at) / Fold change /veh ACY1 (11761880_at) / RFU 11764098_at / Fold change /veh 11764098_at / RFU SAMD14 (11745864_x_at) / Fold change /veh SAMD14 (11745864_x_at) / RFU NPB (11741838_a_at) / Fold change /veh NPB (11741838_a_at) / RFU TMPRSS6 (11731388_a_at) / Fold change /veh TMPRSS6 (11731388_a_at) / RFU KRTAP10-2 (11738614_at) / Fold change /veh KRTAP10-2 (11738614_at) / RFU ARHGAP8 /// PRR5-ARHGAP8 (11727945_x_at) / Fold change /veh ARHGAP8 /// PRR5-ARHGAP8 (11727945_x_at) / RFU KRTAP5-7 /// NADSYN1 (11734609_at) / Fold change /veh KRTAP5-7 /// NADSYN1 (11734609_at) / RFU RASL12 (11751679_a_at) / Fold change /veh RASL12 (11751679_a_at) / RFU CDKN2B (11736163_a_at) / Fold change /veh CDKN2B (11736163_a_at) / RFU PRF1 (11729649_at) / Fold change /veh PRF1 (11729649_at) / RFU, ZNF638 /// ZNF638-IT1 / Fold change vs veh, ZNF638 /// ZNF638-IT1 / RFU, PANK3 / Fold change vs veh, PANK3 / RFU, SH3YL1 / Fold change vs veh, SH3YL1 / RFU, ZEB2 / Fold change vs veh, ZEB2 / RFU, NRIP1 / Fold change vs veh, NRIP1 / RFU, PTTG1IP / Fold change vs veh, PTTG1IP / RFU, CAPN2 / Fold change vs veh, CAPN2 / RFU, MED14 / Fold change vs veh, MED14 / RFU, SNORA58 / Fold change vs veh, SNORA58 / RFU, C1orf63 / Fold change vs veh, C1orf63 / RFU, LRRFIP1 / Fold change vs veh, LRRFIP1 / RFU, NDUFAF7 / Fold change vs veh, NDUFAF7 / RFU, SLC12A2 / Fold change vs veh, SLC12A2 / RFU, IBTK / Fold change vs veh, IBTK / RFU, ESF1 / Fold change vs veh, ESF1 / Fold change vs veh, TMEM50B / RFU, TAOK1 / Fold change vs veh, TAOK1 / RFU, ACBD3 / Fold change vs veh, ACBD3 / RFU, TMA16 / Fold change vs veh, TMA16 / RFU, RWDD3 / Fold change vs veh, RWDD3 / RFU, BCAT1 / Fold change vs veh, BCAT1 / RFU, EDEM3 / Fold change vs veh, EDEM3 / RFU, TMEM33 / Fold change vs veh, TMEM33 / RFU, WDR75 / Fold change vs veh, WDR75 / RFU, AHCTF1 / Fold change vs veh, AHCTF1 / RFU, TFRC / Fold change vs veh, TFRC / RFU, ZDHHC17 / Fold change vs veh, ZDHHC17 / RFU, NOM1 / Fold change vs veh, NOM1 / RFU, ARL8B / Fold change vs veh, ARL8B / RFU, ZBTB11 / Fold change vs veh, ZBTB11 / RFU, TAMM41 / Fold change vs veh, TAMM41 / RFU, KIAA1704 /// LOC100996395 / Fold change vs veh, KIAA1704 /// LOC100996395 / RFU, ING1 / Fold change vs veh, ING1 / RFU, TRMT61B / Fold change vs veh, TRMT61B / RFU, FUBP3 / Fold change vs veh, FUBP3 / RFU, TP53 / Fold change vs veh, TP53 / RFU, TNKS2 / Fold change vs veh, TNKS2 / RFU, ZFP14 / Fold change vs veh, ZFP14 / RFU, ACTR2 / Fold change vs veh, ACTR2 / RFU, PPP3R1 / Fold change vs veh, PPP3R1 / RFU, PIK3R1 / Fold change vs veh, PIK3R1 / RFU, HNRNPA1 / Fold change vs veh, HNRNPA1 / RFU, RNF170 / Fold change vs veh, RNF170 / RFU, ZNF28 / Fold change vs veh, ZNF28 / RFU, RNGTT / Fold change vs veh, RNGTT / RFU, OGT / Fold change vs veh, OGT / RFU, BRD1 / Fold change vs veh, BRD1 / RFU, MARS / Fold change vs veh, MARS / RFU, ZNF655 / Fold change vs veh, ZNF655 / RFU, FAHD1 / Fold change vs veh, FAHD1 / RFU, BDP1 / Fold change vs veh, BDP1 / RFU, LRRCC1 / Fold change vs veh, LRRCC1 / RFU, ARID1A / Fold change vs veh, ARID1A / RFU, ZNF146 / Fold change vs veh, ZNF146 / RFU, ZNF330 / Fold change vs veh, ZNF330 / RFU, GPN3 / Fold change vs veh, GPN3 / RFU, C9orf123 / Fold change vs veh, C9orf123 / RFU, N4BP2L2 / Fold change vs veh, N4BP2L2 / RFU, ARFIP1 / Fold change vs veh, ARFIP1 / RFU, FAM179B / Fold change vs veh, FAM179B / RFU, BCL10 / Fold change vs veh, BCL10 / RFU, UHRF1BP1L / Fold change vs veh, UHRF1BP1L / RFU, BET1 / Fold change vs veh, BET1 / RFU, CNOT2 / Fold change vs veh, CNOT2 / RFU, ZNF268 / Fold change vs veh, ZNF268 / Fold change vs veh, ZNF507 / RFU, DGCR2 / Fold change vs veh, DGCR2 / RFU, WDSUB1 / Fold change vs veh, WDSUB1 / Fold change vs veh, HSP90B1 /// MIR3652 / RFU, ADSS / Fold change vs veh, ADSS / RFU, GK / Fold change vs veh, GK / RFU, ZNF148 / Fold change vs veh, ZNF148 / RFU, TAF9 / Fold change vs veh, TAF9 / RFU, SLC1A5 / Fold change vs veh, SLC1A5 / RFU, SLMO2 / Fold change vs veh, SLMO2 / RFU, ABCC4 / Fold change vs veh, ABCC4 / RFU, LOC101060439 /// RAP1B / Fold change vs veh, LOC101060439 /// RAP1B / RFU, RFX7 / Fold change vs veh, RFX7 / RFU, GTPBP10 / Fold change vs veh, GTPBP10 / RFU, CNEP1R1 / Fold change vs veh, CNEP1R1 / RFU, BIVM-ERCC5 /// ERCC5 / Fold change vs veh, BIVM-ERCC5 /// ERCC5 / RFU, ILF3 / Fold change vs veh, ILF3 / RFU 11762660_at / Fold change /veh 11762660_at / RFU VCAN (11757783_s_at) / Fold change /veh VCAN (11757783_s_at) / RFU DDX43 (11728927_at) / Fold change /veh DDX43 (11728927_at) / RFU KRT8 (11758188_x_at) / Fold change /veh KRT8 (11758188_x_at) / RFU NKD1 (11759106_at) / Fold change /veh NKD1 (11759106_at) / RFU SRD5A1 (11742802_a_at) / Fold change /veh SRD5A1 (11742802_a_at) / RFU TPSAB1 /// TPSB2 (11721975_s_at) / Fold change /veh TPSAB1 /// TPSB2 (11721975_s_at) / RFU GSTM3 (11746129_a_at) / Fold change /veh GSTM3 (11746129_a_at) / RFU IL23R (11737362_x_at) / Fold change /veh IL23R (11737362_x_at) / RFU TMEM51 (11727254_a_at) / Fold change /veh TMEM51 (11727254_a_at) / RFU PIWIL2 (11732686_x_at) / Fold change /veh PIWIL2 (11732686_x_at) / RFU ORM1 (11744905_x_at) / Fold change /veh ORM1 (11744905_x_at) / RFU CCDC152 (11743942_at) / Fold change /veh CCDC152 (11743942_at) / RFU ECM1 (11717891_a_at) / Fold change /veh ECM1 (11717891_a_at) / RFU IL23R (11748794_a_at) / Fold change /veh IL23R (11748794_a_at) / RFU TNFAIP8L3 (11732012_x_at) / Fold change /veh TNFAIP8L3 (11732012_x_at) / RFU MBOAT4 (11741988_at) / Fold change /veh MBOAT4 (11741988_at) / RFU 11764193_at / Fold change /veh 11764193_at / RFU TMEM53 (11763286_at) / Fold change /veh TMEM53 (11763286_at) / RFU MAGEB2 (11727129_at) / Fold change /veh MAGEB2 (11727129_at) / RFU TMEM200A (11744735_a_at) / Fold change /veh TMEM200A (11744735_a_at) / RFU CCDC152 (11751479_a_at) / Fold change /veh CCDC152 (11751479_a_at) / RFU FAM211A (11726209_a_at) / Fold change /veh FAM211A (11726209_a_at) / RFU RGS16 (11746705_a_at) / Fold change /veh RGS16 (11746705_a_at) / RFU VCAN (11755009_s_at) / Fold change /veh VCAN (11755009_s_at) / RFU RHOB (11743442_s_at) / Fold change /veh RHOB (11743442_s_at) / RFU RGS16 (11720943_a_at) / Fold change /veh RGS16 (11720943_a_at) / RFU RGS16 (11720944_at) / Fold change /veh RGS16 (11720944_at) / RFU, VPS4B / Fold change vs veh, VPS4B / RFU, CREB1 / Fold change vs veh, CREB1 / RFU, DNAJC13 / Fold change vs veh, DNAJC13 / RFU, GNAQ / Fold change vs veh, GNAQ / RFU, CDK5R1 / Fold change vs veh, CDK5R1 / RFU, ZRANB3 / Fold change vs veh, ZRANB3 / RFU, CUL4A / Fold change vs veh, CUL4A / RFU, CCNY / Fold change vs veh, CCNY / RFU, UFL1 / Fold change vs veh, UFL1 / RFU, COG3 / Fold change vs veh, COG3 / RFU, DIAPH2 / Fold change vs veh, DIAPH2 / RFU, SKA2 / Fold change vs veh, SKA2 / RFU, AFF3 / Fold change vs veh, AFF3 / RFU, LMF1 / Fold change vs veh, LMF1 / RFU, IPO11 / Fold change vs veh, IPO11 / RFU, DFFB / Fold change vs veh, DFFB / RFU, FOXP1 / Fold change vs veh, FOXP1 / RFU, CARD8 / Fold change vs veh, CARD8 / RFU, STRN3 / Fold change vs veh, STRN3 / RFU, ADK / Fold change vs veh, ADK / RFU, RASSF2 / Fold change vs veh, RASSF2 / RFU, WIPF1 / Fold change vs veh, WIPF1 / RFU, LARP1B / Fold change vs veh, LARP1B / RFU, RASA1 / Fold change vs veh, RASA1 / RFU, RB1 / Fold change vs veh, RB1 / RFU, PPFIA1 / Fold change vs veh, PPFIA1 / RFU, MAT2A / Fold change vs veh, MAT2A / RFU, CCT5 / Fold change vs veh, CCT5 / RFU, WDR92 / Fold change vs veh, WDR92 / RFU, CUX1 / Fold change vs veh, CUX1 / RFU, TTC7A / Fold change vs veh, TTC7A / RFU, TMEM135 / Fold change vs veh, TMEM135 / RFU, DEPTOR / Fold change vs veh, DEPTOR / RFU, CPM / Fold change vs veh, CPM / RFU, DNAJB6 / Fold change vs veh, DNAJB6 / RFU, CACNA2D3 / Fold change vs veh, CACNA2D3 / RFU, DTX4 / Fold change vs veh, DTX4 / RFU, TFCP2 / Fold change vs veh, TFCP2 / RFU, GMCL1 /// GMCL1P1 / Fold change vs veh, GMCL1 /// GMCL1P1 / RFU, AEBP2 / Fold change vs veh, AEBP2 / RFU, SNHG1 /// SNORD22 /// SNORD25 /// SNORD26 /// SNORD27 /// SNORD28 /// SNORD29 /// SNORD31 / Fold change vs veh, SNHG1 /// SNORD22 /// SNORD25 /// SNORD26 /// SNORD27 /// SNORD28 /// SNORD29 /// SNORD31 / Fold change (Aza/veh), C12orf56 (ProbeSet 11735607_a_at) / Fold change (ACY-1035/veh), C12orf56 (ProbeSet 11735607_a_at) / Fold change (Aza/veh), FGFR1OP (ProbeSet 11751329_s_at) / Fold change (ACY-1035/veh), FGFR1OP (ProbeSet 11751329_s_at) / Fold change (Aza/veh), VPS36 (ProbeSet 11739960_a_at) / Fold change (ACY-1035/veh), VPS36 (ProbeSet 11739960_a_at) / RFU SYPL1 (11715823_x_at) / Fold change /veh SYPL1 (11715823_x_at) / RFU IGFBP7 (11715501_s_at) / Fold change /veh IGFBP7 (11715501_s_at) / RFU REEP3 (11722064_at) / Fold change /veh REEP3 (11722064_at) / RFU IGLL1 (11728026_x_at) / Fold change /veh IGLL1 (11728026_x_at): dose or concentration left out as unconfirmed
Details: ProbeSet 11721521_at; LIST B

SMILES: Nc1ncn([C@@H]2O[C@H](CO)[C@@H](O)[C@H]2O)c(=O)n1 [azacitidine]
- Fold change vs veh, ZDHHC17: 0.88
